System: MV-4-11 cells
Assay: Gene expression microarray analysis (Affymetrix PrimeView) and GSEA
Format: cell-based, human
Parameters: RFU PODN (11730768_x_at) / Fold change /veh PODN (11730768_x_at) / RFU LINC00158 (11744669_a_at) / Fold change /veh LINC00158 (11744669_a_at) / RFU DUSP10 (11751237_a_at) / Fold change /veh DUSP10 (11751237_a_at) / RFU ID3 (11757404_x_at) / Fold change /veh ID3 (11757404_x_at) / RFU PLEKHG5 (11737974_s_at) / Fold change /veh PLEKHG5 (11737974_s_at) / RFU LRRC4B (11730491_at) / Fold change /veh LRRC4B (11730491_at) / RFU GIMAP4 (11747438_a_at) / Fold change /veh GIMAP4 (11747438_a_at) / RFU KRT8 (11758183_x_at) / Fold change /veh KRT8 (11758183_x_at) / RFU CNN1 (11734310_a_at) / Fold change /veh CNN1 (11734310_a_at) / RFU VPS37D (11726825_at) / Fold change /veh VPS37D (11726825_at) / RFU C10orf10 (11716522_x_at) / Fold change /veh C10orf10 (11716522_x_at) / RFU KIR2DL2 /// KIR2DL4 /// KIR2DL5A /// KIR2DL5B /// KIR2DS1 /// KIR2DS2 /// KIR2DS3 /// KIR2DS4 /// KIR3DL3 /// KIR3DL3 /// KIR3DS1 (11738374_at) / Fold change /veh KIR2DL2 /// KIR2DL4 /// KIR2DL5A /// KIR2DL5B /// KIR2DS1 /// KIR2DS2 /// KIR2DS3 /// KIR2DS4 /// KIR3DL3 /// KIR3DL3 /// KIR3DS1 (11738374_at) / RFU C1QL1 (11718748_at) / Fold change /veh C1QL1 (11718748_at) / RFU TMPRSS4 (11747572_a_at) / Fold change /veh TMPRSS4 (11747572_a_at) / RFU HAMP (11756126_x_at) / Fold change /veh HAMP (11756126_x_at) / RFU RNFT2 (11725882_a_at) / Fold change /veh RNFT2 (11725882_a_at) / RFU NR4A2 (11747474_a_at) / Fold change /veh NR4A2 (11747474_a_at) / RFU ABCC12 (11746883_a_at) / Fold change /veh ABCC12 (11746883_a_at) / RFU TMEM136 (11760407_x_at) / Fold change /veh TMEM136 (11760407_x_at) / RFU CLDN22 /// WWC2 (11732394_at) / Fold change /veh CLDN22 /// WWC2 (11732394_at) / RFU HLA-DPB1 (11760878_x_at) / Fold change /veh HLA-DPB1 (11760878_x_at) / RFU SPINT1 (11716480_a_at) / Fold change /veh SPINT1 (11716480_a_at) / RFU GAP43 (11754022_s_at) / Fold change /veh GAP43 (11754022_s_at) / RFU A4GNT (11735810_at) / Fold change /veh A4GNT (11735810_at) / RFU PRB3 (11715151_x_at) / Fold change /veh PRB3 (11715151_x_at) / RFU TUBB4B (11761932_at) / Fold change /veh TUBB4B (11761932_at) / RFU CAPN14 (11732068_a_at) / Fold change /veh CAPN14 (11732068_a_at) / RFU TMCC2 (11721928_a_at) / Fold change /veh TMCC2 (11721928_a_at) / RFU IRGQ (11745062_a_at) / Fold change /veh IRGQ (11745062_a_at) / RFU FAM174B (11720279_a_at) / Fold change /veh FAM174B (11720279_a_at) / RFU TMPRSS4 (11748680_a_at) / Fold change /veh TMPRSS4 (11748680_a_at) / RFU FAM212B (11763350_a_at) / Fold change /veh FAM212B (11763350_a_at) / RFU PLEKHG5 (11743358_a_at) / Fold change /veh PLEKHG5 (11743358_a_at) / RFU ZSCAN30 (11745921_a_at) / Fold change /veh ZSCAN30 (11745921_a_at) / RFU CMKLR1 (11741424_a_at) / Fold change /veh CMKLR1 (11741424_a_at) / RFU LOC101060620 /// MAPK8IP1 (11723275_at) / Fold change /veh LOC101060620 /// MAPK8IP1 (11723275_at) / RFU SPTSSB (11747773_x_at) / Fold change /veh SPTSSB (11747773_x_at) / RFU PRSS12 (11739890_at) / Fold change /veh PRSS12 (11739890_at) / RFU BIN1 (11741810_x_at) / Fold change /veh BIN1 (11741810_x_at) / RFU WNT11 (11732464_a_at) / Fold change /veh WNT11 (11732464_a_at) / RFU C10orf10 (11716521_a_at) / Fold change /veh C10orf10 (11716521_a_at) / RFU C5orf56 (11738089_at) / Fold change /veh C5orf56 (11738089_at) / RFU CYB561 (11721691_x_at) / Fold change /veh CYB561 (11721691_x_at) / RFU ANKRD19P (11752326_a_at) / Fold change /veh ANKRD19P (11752326_a_at) / RFU OR2T12 /// OR2T33 /// OR2T8 (11738714_s_at) / Fold change /veh OR2T12 /// OR2T33 /// OR2T8 (11738714_s_at) / RFU VCAN (11748164_a_at) / Fold change /veh VCAN (11748164_a_at) / RFU JSRP1 (11732532_at) / Fold change /veh JSRP1 (11732532_at) / RFU KRTAP10-11 (11738290_x_at) / Fold change /veh KRTAP10-11 (11738290_x_at) / RFU MYO3A (11730013_a_at) / Fold change /veh MYO3A (11730013_a_at) / RFU EBF3 (11725865_a_at) / Fold change /veh EBF3 (11725865_a_at) / RFU CAMK2N1 (11719241_x_at) / Fold change /veh CAMK2N1 (11719241_x_at) / RFU C5orf56 (11738088_a_at) / Fold change /veh C5orf56 (11738088_a_at) / RFU OLFML3 (11715873_a_at) / Fold change /veh OLFML3 (11715873_a_at) / RFU LOC100653217 /// NTM (11731650_a_at) / Fold change /veh LOC100653217 /// NTM (11731650_a_at) / RFU MAPK11 (11762145_a_at) / Fold change /veh MAPK11 (11762145_a_at) / RFU FIZ1 (11724087_x_at) / Fold change /veh FIZ1 (11724087_x_at) / RFU OASL (11726364_x_at) / Fold change /veh OASL (11726364_x_at) / RFU SOX15 (11748057_x_at) / Fold change /veh SOX15 (11748057_x_at) / RFU CD79A (11719716_a_at) / Fold change /veh CD79A (11719716_a_at) / RFU HIST1H1D (11736915_at) / Fold change /veh HIST1H1D (11736915_at) / RFU CASKIN2 (11723855_a_at) / Fold change /veh CASKIN2 (11723855_a_at) / RFU LOC730098 (11760151_x_at) / Fold change /veh LOC730098 (11760151_x_at) / RFU OR4N2 (11742367_at) / Fold change /veh OR4N2 (11742367_at) / RFU PRRT2 (11749266_a_at) / Fold change /veh PRRT2 (11749266_a_at) / RFU SNX32 (11753110_a_at) / Fold change /veh SNX32 (11753110_a_at) / RFU CDHR5 (11726645_a_at) / Fold change /veh CDHR5 (11726645_a_at) / RFU RCAN1 (11760418_a_at) / Fold change /veh RCAN1 (11760418_a_at) / RFU FAM167A (11723789_a_at) / Fold change /veh FAM167A (11723789_a_at) / RFU FAM26E (11764081_at) / Fold change /veh FAM26E (11764081_at) / RFU ISYNA1 (11749810_s_at) / Fold change /veh ISYNA1 (11749810_s_at) / RFU ACY1 (11761880_at) / Fold change /veh ACY1 (11761880_at) / RFU 11764098_at / Fold change /veh 11764098_at / RFU SAMD14 (11745864_x_at) / Fold change /veh SAMD14 (11745864_x_at) / RFU NPB (11741838_a_at) / Fold change /veh NPB (11741838_a_at) / RFU TMPRSS6 (11731388_a_at) / Fold change /veh TMPRSS6 (11731388_a_at) / RFU KRTAP10-2 (11738614_at) / Fold change /veh KRTAP10-2 (11738614_at) / RFU ARHGAP8 /// PRR5-ARHGAP8 (11727945_x_at) / Fold change /veh ARHGAP8 /// PRR5-ARHGAP8 (11727945_x_at) / RFU KRTAP5-7 /// NADSYN1 (11734609_at) / Fold change /veh KRTAP5-7 /// NADSYN1 (11734609_at) / RFU RASL12 (11751679_a_at) / Fold change /veh RASL12 (11751679_a_at) / RFU CDKN2B (11736163_a_at) / Fold change /veh CDKN2B (11736163_a_at) / RFU PRF1 (11729649_at) / Fold change /veh PRF1 (11729649_at) / RFU, ZNF638 /// ZNF638-IT1 / Fold change vs veh, ZNF638 /// ZNF638-IT1 / RFU, PANK3 / Fold change vs veh, PANK3 / RFU, SH3YL1 / Fold change vs veh, SH3YL1 / RFU, ZEB2 / Fold change vs veh, ZEB2 / RFU, NRIP1 / Fold change vs veh, NRIP1 / RFU, PTTG1IP / Fold change vs veh, PTTG1IP / RFU, CAPN2 / Fold change vs veh, CAPN2 / RFU, MED14 / Fold change vs veh, MED14 / RFU, SNORA58 / Fold change vs veh, SNORA58 / RFU, C1orf63 / Fold change vs veh, C1orf63 / RFU, LRRFIP1 / Fold change vs veh, LRRFIP1 / RFU, NDUFAF7 / Fold change vs veh, NDUFAF7 / RFU, SLC12A2 / Fold change vs veh, SLC12A2 / RFU, IBTK / Fold change vs veh, IBTK / RFU, ESF1 / Fold change vs veh, ESF1 / Fold change vs veh, TMEM50B / RFU, TAOK1 / Fold change vs veh, TAOK1 / RFU, ACBD3 / Fold change vs veh, ACBD3 / RFU, TMA16 / Fold change vs veh, TMA16 / RFU, RWDD3 / Fold change vs veh, RWDD3 / RFU, BCAT1 / Fold change vs veh, BCAT1 / RFU, EDEM3 / Fold change vs veh, EDEM3 / RFU, TMEM33 / Fold change vs veh, TMEM33 / RFU, WDR75 / Fold change vs veh, WDR75 / RFU, AHCTF1 / Fold change vs veh, AHCTF1 / RFU, TFRC / Fold change vs veh, TFRC / RFU, ZDHHC17 / Fold change vs veh, ZDHHC17 / RFU, NOM1 / Fold change vs veh, NOM1 / RFU, ARL8B / Fold change vs veh, ARL8B / RFU, ZBTB11 / Fold change vs veh, ZBTB11 / RFU, TAMM41 / Fold change vs veh, TAMM41 / RFU, KIAA1704 /// LOC100996395 / Fold change vs veh, KIAA1704 /// LOC100996395 / RFU, ING1 / Fold change vs veh, ING1 / RFU, TRMT61B / Fold change vs veh, TRMT61B / RFU, FUBP3 / Fold change vs veh, FUBP3 / RFU, TP53 / Fold change vs veh, TP53 / RFU, TNKS2 / Fold change vs veh, TNKS2 / RFU, ZFP14 / Fold change vs veh, ZFP14 / RFU, ACTR2 / Fold change vs veh, ACTR2 / RFU, PPP3R1 / Fold change vs veh, PPP3R1 / RFU, PIK3R1 / Fold change vs veh, PIK3R1 / RFU, HNRNPA1 / Fold change vs veh, HNRNPA1 / RFU, RNF170 / Fold change vs veh, RNF170 / RFU, ZNF28 / Fold change vs veh, ZNF28 / RFU, RNGTT / Fold change vs veh, RNGTT / RFU, OGT / Fold change vs veh, OGT / RFU, BRD1 / Fold change vs veh, BRD1 / RFU, MARS / Fold change vs veh, MARS / RFU, ZNF655 / Fold change vs veh, ZNF655 / RFU, FAHD1 / Fold change vs veh, FAHD1 / RFU, BDP1 / Fold change vs veh, BDP1 / RFU, LRRCC1 / Fold change vs veh, LRRCC1 / RFU, ARID1A / Fold change vs veh, ARID1A / RFU, ZNF146 / Fold change vs veh, ZNF146 / RFU, ZNF330 / Fold change vs veh, ZNF330 / RFU, GPN3 / Fold change vs veh, GPN3 / RFU, C9orf123 / Fold change vs veh, C9orf123 / RFU, N4BP2L2 / Fold change vs veh, N4BP2L2 / RFU, ARFIP1 / Fold change vs veh, ARFIP1 / RFU, FAM179B / Fold change vs veh, FAM179B / RFU, BCL10 / Fold change vs veh, BCL10 / RFU, UHRF1BP1L / Fold change vs veh, UHRF1BP1L / RFU, BET1 / Fold change vs veh, BET1 / RFU, CNOT2 / Fold change vs veh, CNOT2 / RFU, ZNF268 / Fold change vs veh, ZNF268 / Fold change vs veh, ZNF507 / RFU, DGCR2 / Fold change vs veh, DGCR2 / RFU, WDSUB1 / Fold change vs veh, WDSUB1 / Fold change vs veh, HSP90B1 /// MIR3652 / RFU, ADSS / Fold change vs veh, ADSS / RFU, GK / Fold change vs veh, GK / RFU, ZNF148 / Fold change vs veh, ZNF148 / RFU, TAF9 / Fold change vs veh, TAF9 / RFU, SLC1A5 / Fold change vs veh, SLC1A5 / RFU, SLMO2 / Fold change vs veh, SLMO2 / RFU, ABCC4 / Fold change vs veh, ABCC4 / RFU, LOC101060439 /// RAP1B / Fold change vs veh, LOC101060439 /// RAP1B / RFU, RFX7 / Fold change vs veh, RFX7 / RFU, GTPBP10 / Fold change vs veh, GTPBP10 / RFU, CNEP1R1 / Fold change vs veh, CNEP1R1 / RFU, BIVM-ERCC5 /// ERCC5 / Fold change vs veh, BIVM-ERCC5 /// ERCC5 / RFU, ILF3 / Fold change vs veh, ILF3 / RFU 11762660_at / Fold change /veh 11762660_at / RFU VCAN (11757783_s_at) / Fold change /veh VCAN (11757783_s_at) / RFU DDX43 (11728927_at) / Fold change /veh DDX43 (11728927_at) / RFU KRT8 (11758188_x_at) / Fold change /veh KRT8 (11758188_x_at) / RFU NKD1 (11759106_at) / Fold change /veh NKD1 (11759106_at) / RFU SRD5A1 (11742802_a_at) / Fold change /veh SRD5A1 (11742802_a_at) / RFU TPSAB1 /// TPSB2 (11721975_s_at) / Fold change /veh TPSAB1 /// TPSB2 (11721975_s_at) / RFU GSTM3 (11746129_a_at) / Fold change /veh GSTM3 (11746129_a_at) / RFU IL23R (11737362_x_at) / Fold change /veh IL23R (11737362_x_at) / RFU TMEM51 (11727254_a_at) / Fold change /veh TMEM51 (11727254_a_at) / RFU PIWIL2 (11732686_x_at) / Fold change /veh PIWIL2 (11732686_x_at) / RFU ORM1 (11744905_x_at) / Fold change /veh ORM1 (11744905_x_at) / RFU CCDC152 (11743942_at) / Fold change /veh CCDC152 (11743942_at) / RFU ECM1 (11717891_a_at) / Fold change /veh ECM1 (11717891_a_at) / RFU IL23R (11748794_a_at) / Fold change /veh IL23R (11748794_a_at) / RFU TNFAIP8L3 (11732012_x_at) / Fold change /veh TNFAIP8L3 (11732012_x_at) / RFU MBOAT4 (11741988_at) / Fold change /veh MBOAT4 (11741988_at) / RFU 11764193_at / Fold change /veh 11764193_at / RFU TMEM53 (11763286_at) / Fold change /veh TMEM53 (11763286_at) / RFU MAGEB2 (11727129_at) / Fold change /veh MAGEB2 (11727129_at) / RFU TMEM200A (11744735_a_at) / Fold change /veh TMEM200A (11744735_a_at) / RFU CCDC152 (11751479_a_at) / Fold change /veh CCDC152 (11751479_a_at) / RFU FAM211A (11726209_a_at) / Fold change /veh FAM211A (11726209_a_at) / RFU RGS16 (11746705_a_at) / Fold change /veh RGS16 (11746705_a_at) / RFU VCAN (11755009_s_at) / Fold change /veh VCAN (11755009_s_at) / RFU RHOB (11743442_s_at) / Fold change /veh RHOB (11743442_s_at) / RFU RGS16 (11720943_a_at) / Fold change /veh RGS16 (11720943_a_at) / RFU RGS16 (11720944_at) / Fold change /veh RGS16 (11720944_at) / RFU, VPS4B / Fold change vs veh, VPS4B / RFU, CREB1 / Fold change vs veh, CREB1 / RFU, DNAJC13 / Fold change vs veh, DNAJC13 / RFU, GNAQ / Fold change vs veh, GNAQ / RFU, CDK5R1 / Fold change vs veh, CDK5R1 / RFU, ZRANB3 / Fold change vs veh, ZRANB3 / RFU, CUL4A / Fold change vs veh, CUL4A / RFU, CCNY / Fold change vs veh, CCNY / RFU, UFL1 / Fold change vs veh, UFL1 / RFU, COG3 / Fold change vs veh, COG3 / RFU, DIAPH2 / Fold change vs veh, DIAPH2 / RFU, SKA2 / Fold change vs veh, SKA2 / RFU, AFF3 / Fold change vs veh, AFF3 / RFU, LMF1 / Fold change vs veh, LMF1 / RFU, IPO11 / Fold change vs veh, IPO11 / RFU, DFFB / Fold change vs veh, DFFB / RFU, FOXP1 / Fold change vs veh, FOXP1 / RFU, CARD8 / Fold change vs veh, CARD8 / RFU, STRN3 / Fold change vs veh, STRN3 / RFU, ADK / Fold change vs veh, ADK / RFU, RASSF2 / Fold change vs veh, RASSF2 / RFU, WIPF1 / Fold change vs veh, WIPF1 / RFU, LARP1B / Fold change vs veh, LARP1B / RFU, RASA1 / Fold change vs veh, RASA1 / RFU, RB1 / Fold change vs veh, RB1 / RFU, PPFIA1 / Fold change vs veh, PPFIA1 / RFU, MAT2A / Fold change vs veh, MAT2A / RFU, CCT5 / Fold change vs veh, CCT5 / RFU, WDR92 / Fold change vs veh, WDR92 / RFU, CUX1 / Fold change vs veh, CUX1 / RFU, TTC7A / Fold change vs veh, TTC7A / RFU, TMEM135 / Fold change vs veh, TMEM135 / RFU, DEPTOR / Fold change vs veh, DEPTOR / RFU, CPM / Fold change vs veh, CPM / RFU, DNAJB6 / Fold change vs veh, DNAJB6 / RFU, CACNA2D3 / Fold change vs veh, CACNA2D3 / RFU, DTX4 / Fold change vs veh, DTX4 / RFU, TFCP2 / Fold change vs veh, TFCP2 / RFU, GMCL1 /// GMCL1P1 / Fold change vs veh, GMCL1 /// GMCL1P1 / RFU, AEBP2 / Fold change vs veh, AEBP2 / RFU, SNHG1 /// SNORD22 /// SNORD25 /// SNORD26 /// SNORD27 /// SNORD28 /// SNORD29 /// SNORD31 / Fold change vs veh, SNHG1 /// SNORD22 /// SNORD25 /// SNORD26 /// SNORD27 /// SNORD28 /// SNORD29 /// SNORD31 / Fold change (Aza/veh), C12orf56 (ProbeSet 11735607_a_at) / Fold change (ACY-1035/veh), C12orf56 (ProbeSet 11735607_a_at) / Fold change (Aza/veh), FGFR1OP (ProbeSet 11751329_s_at) / Fold change (ACY-1035/veh), FGFR1OP (ProbeSet 11751329_s_at) / Fold change (Aza/veh), VPS36 (ProbeSet 11739960_a_at) / Fold change (ACY-1035/veh), VPS36 (ProbeSet 11739960_a_at) / RFU SYPL1 (11715823_x_at) / Fold change /veh SYPL1 (11715823_x_at) / RFU IGFBP7 (11715501_s_at) / Fold change /veh IGFBP7 (11715501_s_at) / RFU REEP3 (11722064_at) / Fold change /veh REEP3 (11722064_at) / RFU IGLL1 (11728026_x_at) / Fold change /veh IGLL1 (11728026_x_at): dose or concentration left out as unconfirmed
Settings: MV-4-11 cells, 48 hours

With `Nc1ccc(-c2cccs2)cc1NC(=O)c1ccc2c(c1)cc(C1CC1)n2CCN1CCOCC1` [ACY-1035] the “RFU PODN (11730768_x_at)” value was 25.60 RFU.

Source: publication PMC5218480 (PLoS ONE, 2017)
